Test results published in patent US20040146474A1, “Method for softening lines and relaxing the skin with adenosine and adenosine analogues” (L'OREAL, priority 2002, published 2004).

System: equivalent dermis model constituted by a matrix of collagen seeded with normal human fibroblasts
Experiment: Dermo-relaxant effect: spontaneous contraction of equivalent dermis (collagen matrix seeded with fibroblasts)
Assay type: cell-based
Details: adenosine 0.01%
Description: The principle of this test is to study the relaxing effect of adenosine on an equivalent dermis model constituted by a matrix of collagen seeded with normal human fibroblasts.
These conditions were intended to imitate in vitro the dermal contractile phenomena which occur during facial expressions. Under these conditions, cells spontaneously express tensile forces which induce retraction of the collagen gel. […] Measuring that surface area allows the relaxation effects of substances that have been brought into contact with the equivalent dermis to be determined.
Two series of 3 attached equivalent dermises containing normal human fibroblasts were prepared: a control series with no treatment, and a series treated with adenosine (0.01%). The experiment was carried out three times.
The skin equivalents were prepared as described by Asselineau et al, Exp. Cell. Res., 1985, 159, 536-539; Models in Dermatology, 1987, vol 3, pp 1-7, in the following proportions:
The treated equivalent dermis differed from the control equivalent dermis in that 0.01% of adenosine had been added.
The collagen used was type I collagen (commercial solution), but it was also possible to use type III or IV collagen. It was extracted from rat tails or calf skin by acid hydrolysis and stored in an acidic medium at +4° C.; it polymerizes naturally by heating to 37° C. and by reducing the acidity. The collagen had been dialyzed against successive baths of water+acetic acid.
The following protocol was employed: the following were introduced into a sterile tube: 1.76×MEM medium in the presence of additives (glutamine 1%, non essential amino acids 1%, sodium pyruvate 1%, fungizone 1% and penicillin/streptomycin 1%), foetal calf serum, 0.1 N sodium hydroxide NaOH. Fibroblasts isolated from human skin explants were then added in a concentration of 1.4×10^5 cells per ml of culture medium.
A 1/1000 vol/vol mixture of collagen in acetic acid was then slowly added by pouring it down the tube wall so that the appearance of a whitish cloud was observed.
The ensemble was then carefully mixed and distributed into the wells of a 12-well culture plate (Costar, reference 3512) in an amount of 0.5 ml of mixture per cm^2. The culture plate was placed in an incubator at 37° C. with 5% CO2.
Once formed after polymerizing the collagen, the equivalent dermises were left adhering to the culture support for 3 days then detached from the support so that contraction could commence. […]
To this end, a digital image was acquired for each treated or untreated equivalent dermis using a camera (CCD Camera—Iris Sony DXC—107P) and the surface area was then calculated for each image using an image analysis system (Zeiss Axiovision 3.0). […]

Structure (SMILES): Nc1ncnc2c1ncn2[C@@H]1O[C@H](CO)[C@@H](O)[C@H]1O [Adenosine]
- relaxing effect on equivalent dermis (conclusion in words): causes less contraction in an equivalent dermis
- reduction of contraction percentage compared with the control (eight hours after detachment from support): 10.5%
- reduction of contraction percentage compared with the control (four hours after detachment from support): 6.4%
- reduction of contraction percentage compared with the control (twenty-four hours after detachment from support): 12.7%
